Tests used:
[1] = target: Voltage-dependent L-type calcium channel subunit alpha-1C (Homo sapiens, UniProt Q13936); experiment: Inhibition of Cav1.2 (unknown origin)
[2] = target: Tyrosine-protein kinase Fgr (Homo sapiens, UniProt P09769); experiment: Inhibition of recombinant full length human C-terminal His-tagged FGR expressed in baculovirus expression system using tyrosine-2 peptide as substrate incubated for 60 mins in presence of ATP by Z'-LYTE assay
[3] = target: Somatostatin receptor type 2 (Homo sapiens) (UniProt P30874); experiment: Displacement of [125I]Tyr11-Somatostatin 14 from recombinant full length human SST2 expressed in CHO-K1 cells at 10 uM after 4 hrs by radiometric scintillation analysis relative to control; type: cell-based
[4] = target: Neuropeptide Y receptor type 1 (Homo sapiens) (UniProt P25929); experiment: Displacement of [[125I]peptide YY from full length human SK-N-MC cell-derived Y1 neuropeptide receptor at 10 uM measured after 60 mins by radiometric scintillation analysis relative to control; type: cell-based
[5] = target: Histamine H1 receptor (Homo sapiens) (UniProt P35367); experiment: Displacement of [3H]pyrilamine from full length human recombinant histamine H1 receptor expressed in CHO-K1 cells at 10 uM measured after 180 mins by radiometric scintillation analysis relative to control; type: cell-based
[6] = target: Endothelin receptor type B (Homo sapiens) (UniProt P24530); experiment: Displacement of [125I]endothelin-1 from recombinant full length human recombinant ETB receptor expressed in CHO-K1 cells at 10 uM measured after 120 mins by radiometric scintillation analysis relative to control; type: cell-based
[7] = target: D(2) dopamine receptor (Homo sapiens) (UniProt P14416); experiment: Displacement of [3H]spiperone from recombinant full length human recombinant D2S receptor expressed in CHO cells at 10 uM measured after 120 mins by radiometric scintillation analysis relative to control; type: cell-based
[8] = target: CDK7/Cyclin H/MNAT1 (Homo sapiens, UniProt P50613); experiment: Inhibition of recombinant full length human His-tagged CDK7/CyclinH/MAT1 expressed in baculovirus expression system using CDK7/9tide peptide as substrate incubated for 60 mins in presence of ATP by Adapta assay
[9] = target: Serine/threonine-protein kinase Chk1 (Homo sapiens, UniProt O14757); experiment: Inhibition of recombinant human full-length His-tagged CHEK1 expressed in baculovirus expression system using FRET-labeled Ser/Thr 19 peptide as substrate measured after 1 hr in presence of ATP by Z'-lyte assay
[10] = target: G protein-coupled receptor kinase 5 (Homo sapiens, UniProt P34947); experiment: Inhibition of recombinant full length human GST-tagged GRK5 expressed in baculovirus expression system using serine/threonine-16 peptide as substrate incubated for 60 mins in presence of ATP by Z'-LYTE assay
[11] = target: Serine/threonine-protein kinase Nek6 (Homo sapiens, UniProt Q9HC98); experiment: Inhibition of recombinant full length human GST-tagged NEK6 expressed in insect expression system using serine/threonine-22 peptide as substrate incubated for 60 mins in presence of ATP by Z'-LYTE assay
[12] = target: Protein kinase C gamma type (Homo sapiens, UniProt P05129); experiment: Inhibition of recombinant full length human GST-tagged PRKCG expressed in insect expression system using serine/threonine-7 peptide as substrate incubated for 60 mins in presence of ATP by Z'-LYTE assay

Chain of Voltage-dependent L-type calcium channel subunit alpha-1C (Q13936 whole entry): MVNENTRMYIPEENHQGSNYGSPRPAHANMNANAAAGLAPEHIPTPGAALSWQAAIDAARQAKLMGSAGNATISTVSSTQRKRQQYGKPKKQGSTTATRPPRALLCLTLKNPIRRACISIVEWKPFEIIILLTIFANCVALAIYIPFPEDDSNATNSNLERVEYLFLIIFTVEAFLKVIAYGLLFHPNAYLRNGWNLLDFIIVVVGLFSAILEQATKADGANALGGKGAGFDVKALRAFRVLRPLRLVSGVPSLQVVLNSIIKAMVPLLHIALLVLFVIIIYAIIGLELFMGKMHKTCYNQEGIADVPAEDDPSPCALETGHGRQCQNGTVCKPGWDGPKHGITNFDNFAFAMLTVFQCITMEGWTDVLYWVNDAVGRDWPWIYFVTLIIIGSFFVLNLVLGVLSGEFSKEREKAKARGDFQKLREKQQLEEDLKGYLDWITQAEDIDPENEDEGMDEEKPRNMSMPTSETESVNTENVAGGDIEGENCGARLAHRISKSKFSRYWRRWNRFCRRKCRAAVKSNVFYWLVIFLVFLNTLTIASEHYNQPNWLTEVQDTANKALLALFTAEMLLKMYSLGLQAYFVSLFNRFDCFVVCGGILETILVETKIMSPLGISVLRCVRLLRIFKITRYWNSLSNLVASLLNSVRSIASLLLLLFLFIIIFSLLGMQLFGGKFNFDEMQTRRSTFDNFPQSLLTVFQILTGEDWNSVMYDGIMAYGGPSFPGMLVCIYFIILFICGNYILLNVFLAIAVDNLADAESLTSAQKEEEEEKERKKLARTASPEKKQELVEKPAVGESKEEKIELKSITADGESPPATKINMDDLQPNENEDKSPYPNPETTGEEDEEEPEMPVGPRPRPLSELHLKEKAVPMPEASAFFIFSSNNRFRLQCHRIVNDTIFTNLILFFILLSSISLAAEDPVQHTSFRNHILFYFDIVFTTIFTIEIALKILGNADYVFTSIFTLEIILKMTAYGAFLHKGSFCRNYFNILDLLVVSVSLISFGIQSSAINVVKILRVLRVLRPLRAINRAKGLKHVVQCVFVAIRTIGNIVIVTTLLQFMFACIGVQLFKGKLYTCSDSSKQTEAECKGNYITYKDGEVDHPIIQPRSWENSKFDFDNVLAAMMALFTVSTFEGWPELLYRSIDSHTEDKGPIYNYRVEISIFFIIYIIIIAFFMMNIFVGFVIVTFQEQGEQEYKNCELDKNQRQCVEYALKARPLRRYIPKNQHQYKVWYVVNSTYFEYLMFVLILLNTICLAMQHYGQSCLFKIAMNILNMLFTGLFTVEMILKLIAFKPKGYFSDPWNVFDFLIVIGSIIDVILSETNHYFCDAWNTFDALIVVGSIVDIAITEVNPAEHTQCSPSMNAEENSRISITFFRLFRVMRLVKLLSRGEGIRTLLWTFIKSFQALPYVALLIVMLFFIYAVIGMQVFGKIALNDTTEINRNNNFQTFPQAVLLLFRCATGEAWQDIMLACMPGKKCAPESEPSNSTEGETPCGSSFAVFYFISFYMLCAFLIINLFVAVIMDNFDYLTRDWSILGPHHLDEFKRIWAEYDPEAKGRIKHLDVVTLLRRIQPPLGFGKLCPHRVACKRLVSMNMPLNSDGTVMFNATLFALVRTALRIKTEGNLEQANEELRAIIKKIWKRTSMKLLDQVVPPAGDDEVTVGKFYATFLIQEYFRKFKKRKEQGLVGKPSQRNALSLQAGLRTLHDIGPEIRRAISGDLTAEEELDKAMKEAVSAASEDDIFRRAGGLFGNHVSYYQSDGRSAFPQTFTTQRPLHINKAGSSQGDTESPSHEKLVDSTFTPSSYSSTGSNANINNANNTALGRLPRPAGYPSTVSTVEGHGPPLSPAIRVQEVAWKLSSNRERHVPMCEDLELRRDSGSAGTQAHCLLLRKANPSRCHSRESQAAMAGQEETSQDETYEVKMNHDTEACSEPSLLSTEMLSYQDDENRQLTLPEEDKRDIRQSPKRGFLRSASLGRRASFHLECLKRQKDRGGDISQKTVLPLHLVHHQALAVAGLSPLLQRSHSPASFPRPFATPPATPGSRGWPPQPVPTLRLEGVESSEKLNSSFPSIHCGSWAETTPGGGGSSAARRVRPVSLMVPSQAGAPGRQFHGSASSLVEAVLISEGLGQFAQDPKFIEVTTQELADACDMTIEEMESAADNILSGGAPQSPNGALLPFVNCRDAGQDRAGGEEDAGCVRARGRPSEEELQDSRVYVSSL
Chain of Serine/threonine-protein kinase Nek6 (Q9HC98 whole entry): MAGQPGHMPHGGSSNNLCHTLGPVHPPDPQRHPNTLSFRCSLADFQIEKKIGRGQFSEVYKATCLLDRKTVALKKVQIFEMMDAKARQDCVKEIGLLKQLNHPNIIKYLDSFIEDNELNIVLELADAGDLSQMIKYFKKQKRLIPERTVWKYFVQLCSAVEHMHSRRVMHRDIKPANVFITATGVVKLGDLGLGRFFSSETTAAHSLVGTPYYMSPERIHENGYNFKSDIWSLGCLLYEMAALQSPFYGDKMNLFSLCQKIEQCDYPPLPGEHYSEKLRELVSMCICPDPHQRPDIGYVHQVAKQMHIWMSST
Chain of CDK7/Cyclin H/MNAT1 (P51946 whole entry): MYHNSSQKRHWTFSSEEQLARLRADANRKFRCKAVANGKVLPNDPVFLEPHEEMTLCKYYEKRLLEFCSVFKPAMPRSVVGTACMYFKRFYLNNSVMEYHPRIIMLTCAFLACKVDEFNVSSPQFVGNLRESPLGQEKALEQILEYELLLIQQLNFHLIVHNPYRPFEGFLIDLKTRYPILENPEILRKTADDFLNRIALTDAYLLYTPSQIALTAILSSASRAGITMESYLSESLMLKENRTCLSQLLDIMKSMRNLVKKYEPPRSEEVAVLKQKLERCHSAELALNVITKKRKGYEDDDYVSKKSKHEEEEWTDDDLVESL
Chain of CDK7/Cyclin H/MNAT1 (P50613 whole entry): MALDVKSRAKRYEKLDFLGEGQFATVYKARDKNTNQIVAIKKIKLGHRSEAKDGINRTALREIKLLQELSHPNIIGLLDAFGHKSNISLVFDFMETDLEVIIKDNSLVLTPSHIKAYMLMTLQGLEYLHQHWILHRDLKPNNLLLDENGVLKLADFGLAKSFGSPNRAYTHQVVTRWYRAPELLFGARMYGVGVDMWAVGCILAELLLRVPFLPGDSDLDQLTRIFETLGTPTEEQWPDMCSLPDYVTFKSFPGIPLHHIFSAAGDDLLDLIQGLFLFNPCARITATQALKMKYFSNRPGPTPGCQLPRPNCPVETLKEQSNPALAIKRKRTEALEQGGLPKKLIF
Chain of CDK7/Cyclin H/MNAT1 (P51948 whole entry, further chain): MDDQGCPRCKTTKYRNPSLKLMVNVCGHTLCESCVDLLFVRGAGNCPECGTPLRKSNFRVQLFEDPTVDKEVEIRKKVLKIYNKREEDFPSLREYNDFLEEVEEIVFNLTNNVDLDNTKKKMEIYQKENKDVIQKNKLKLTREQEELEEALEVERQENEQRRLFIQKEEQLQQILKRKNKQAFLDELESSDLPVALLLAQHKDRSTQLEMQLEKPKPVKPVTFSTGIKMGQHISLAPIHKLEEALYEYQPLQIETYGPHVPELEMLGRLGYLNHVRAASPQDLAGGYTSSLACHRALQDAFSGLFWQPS
Chain of D(2) dopamine receptor (Homo sapiens) (P14416 whole entry): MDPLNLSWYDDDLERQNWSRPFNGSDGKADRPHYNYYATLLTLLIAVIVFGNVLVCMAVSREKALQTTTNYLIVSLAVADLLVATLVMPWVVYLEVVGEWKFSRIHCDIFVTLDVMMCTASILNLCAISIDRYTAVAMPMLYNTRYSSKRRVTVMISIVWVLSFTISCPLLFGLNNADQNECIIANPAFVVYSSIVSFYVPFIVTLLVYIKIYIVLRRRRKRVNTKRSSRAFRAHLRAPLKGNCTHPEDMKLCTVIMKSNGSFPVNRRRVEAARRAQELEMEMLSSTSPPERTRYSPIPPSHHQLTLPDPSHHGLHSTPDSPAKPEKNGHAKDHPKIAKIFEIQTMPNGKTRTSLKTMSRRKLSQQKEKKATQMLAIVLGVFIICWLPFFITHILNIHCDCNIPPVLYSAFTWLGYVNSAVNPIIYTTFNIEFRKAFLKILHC
Chain of Neuropeptide Y receptor type 1 (Homo sapiens) (P25929 whole entry): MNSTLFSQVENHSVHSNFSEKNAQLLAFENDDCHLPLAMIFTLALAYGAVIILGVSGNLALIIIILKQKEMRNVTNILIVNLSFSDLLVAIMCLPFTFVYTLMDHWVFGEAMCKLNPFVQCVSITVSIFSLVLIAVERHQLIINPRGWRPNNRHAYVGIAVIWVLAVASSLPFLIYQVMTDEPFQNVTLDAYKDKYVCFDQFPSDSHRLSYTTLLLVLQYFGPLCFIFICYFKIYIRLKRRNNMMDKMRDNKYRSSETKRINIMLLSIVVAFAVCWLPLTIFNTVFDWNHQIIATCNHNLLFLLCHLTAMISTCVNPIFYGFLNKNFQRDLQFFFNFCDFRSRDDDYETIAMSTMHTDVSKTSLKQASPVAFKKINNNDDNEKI

## C[C@@H]1C[C@H]1C(=O)N1CCN(c2cnc(C#N)c(-c3cnn(C)c3)n2)C[C@H]1C
[1]
  IC50: > 30 µM
[2]
  IC50: 25.4 µM
[3]
  inhibition: -5%
[4]
  inhibition: 10%
[5]
  inhibition: 12%
[6]
  inhibition: 2%
[7]
  inhibition: 0%
[8]
  IC50: > 100 µM
[9]
  IC50: > 100 µM
[10]
  IC50: > 100 µM
[11]
  IC50: > 100 µM
[12]
  IC50: > 100 µM

— ChEMBL document CHEMBL4602617, “Discovery and optimization of heteroaryl piperazines as potent and selective PI3Kδ inhibitors” (Bioorg Med Chem Lett, 2020)
